From patent publication US11116747B2, “Compositions comprising proanthocyanidins and oenothein B” (Nugerontix Limited, priority 2014, dated 2021) come the findings set out here.

In experiment [1] the test system is endothelin-1 synthesis. The experiment can be described thus: Inhibition of endothelin-1 synthesis by endothelial cells (immunoassay of conditioned media). Type of experiment: cell-based, bovine. As to conditions: for endothelin-1 synthesis, percentage of basal values: Rb-ET 2 μg/ml, GS-OPC 1 μg/ml, alone or in combination. On the procedure:
(§1) The effects on endothelin-1 synthesis of purified procyanidins and ellagitannins, either alone or in combination, are tested on human, bovine or porcine aortic endothelial cells cultured in multi-well plates. Cells are grown in a CO2 incubator with specific growth media until becoming confluent. Purified extracts, chromatography fractions, or isolated procyanidins and ellagitannins are evaluated after dilution in cell culture media and then incubated for up to 24 h with the cultured cells. At the end of the incubation period cell culture media samples are collected, and endothelin-1 synthesis is determined by immunoassay of the media samples. ET-1 release for each treated well is expressed as a percentage of basal release from control wells containing cells incubated with cell culture medium alone. Data are compared and analysed for statistically significant differences using life sciences software such as Graphpad Prism (available from www.graphpad.com). At the end of the incubation period cells are lysed to obtain mRNA to measure changes in gene expression that indicate improved endothelial function. Analyses of relative levels of mRNA transcripts are undertaken by quantitative reverse transcription polymerase chain reaction (qRT-PCR) (Journal of Agricultural and Food Chemistry, 2010, 58: 4008-13).
Oenothein B (>95% purity) was purified from pomegranate juice by Sephadex LH20 chromatography and reverse-phase HPLC (step 1—Apex Prepsil 8 μm C-18 10×250 mm HPLC column—Jones Chromatography; step 2 Luna 5 μm PFP(2) 4.6×250 mm HPLC column—Phenomenex). Ability to modify endothelial function was assessed by incubating oenothein B with bovine aortic endothelial cells and measuring endothelin-1 synthesis following previously described methods (Journal of Agricultural and Food Chemistry, 2010, 58: 4008-13).
Biologically active biotin-labelled apple oligomeric procyanidins were prepared as follows: apple polyphenol extract was fractionated on Sephadex LH20 to obtain a fraction enriched in apple oligomeric procyanidins (OPC) tetramers to hexamers. The fraction was dried, re-dissolved in dimethyl formamide and reacted with the tetrafluorophenyl ester of triethyleneglycol-biotin (Thermo Scientific EZ-Link™ TFP-PEG3-Biotin). […]
Ellagitannins: oenothein B (OTb, 1 μg/ml), raspberry seed extract (Rb-ET 2 μg/ml); oligomeric procyanidins (OPC): grape seed extract (GS-OPC, 1 μg/ml) and apple extract (Ap-OPC, 1 μg/ml) purified as above, were incubated either alone, or in combination, with bovine aortic endothelial cells for 6 h and 24 h (FIGS. 2(A) and 2(B)). […] Statistical differences were determined by ANOVA (**=P<0.01; ***=P<0.001 indicates significant difference compared to basal values; ^+++=P<0.001 compared to the individual components of the combinations alone). […]

Experiment [2] relates to bovine aortic endothelial cells. The experiment can be described thus: Binding of biotinylated-OPC to endothelial cells (neutravidin-horseradish peroxidase/TMB detection). As to conditions: oenothein B 30 min preincubation, then biotinylated-OPC 1 μg/ml with oenothein B 30 min, FIG. 1(C). It is filed as cell-based. As for the experimental part: Bovine aortic endothelial cells were incubated with oenothein B (μg/ml) from pomegranate juice for 30 min before addition of biotinylated-OPC (1 μg/ml) alone or with oenothein B (μg/ml) for 30 min. After removal of the incubation mixture, bound biotinylated-OPC was detected by incubation with neutravidin-horseradish peroxidase for 1 h; followed by addition of TMB substrate for 30 min after cells had been rinsed twice to remove excess neutravidin-horseradish peroxidase. Binding is indicated relative to biotinylated-OPC alone after subtraction of background signal. (All data are shown as mean±SD; *=P<0.05; **=P<0.01; ***=P<0.001 indicates significant differences from basal or control values). […] From this it can be concluded that oenothein B increases the affinity of endothelial cells for procyanidins, and enhances the effectiveness of procyanidins for reversing endothelial dysfunction.

Experiment [3] relates to Kruppel-like factor 2 (KLF2) mRNA. Kind of experiment: KLF2 mRNA levels in endothelial cells by qRT-PCR. As to conditions: 24 h; OTb 1 μg/ml, Ap-OPC 1 μg/ml; normalised to RNA polymerase 2; FIG. 4(A). Type of experiment: cell-based, bovine. On the procedure: as §1, with “4008-13). […]” for “4008-13).”
A general note: Real-time PCR tracks product formation cycle by cycle.

Experiment [4] deals with endothelial nitric oxide synthase (eNOS) mRNA. Kind of experiment: eNOS mRNA levels in endothelial cells by qRT-PCR. It is filed as cell-based, bovine. The settings on record: 24 h; OTb 1 μg/ml, Ap-OPC 1 μg/ml; normalised to RNA polymerase 2; FIG. 4(B). As for the experimental part:
as §1, with “4008-13). […]” for “4008-13).”

Experiment [5] relates to endothelin-1 (ET-1) mRNA. The experiment can be described thus: Endothelin-1 mRNA levels in endothelial cells by qRT-PCR. The settings on record: 24 h; OTb 1 μg/ml, Ap-OPC 1 μg/ml; normalised to RNA polymerase 2; FIG. 4(C). Type of experiment: cell-based, bovine. On the procedure: as §1, with “4008-13). […]” for “4008-13).”

As for `O=C(O[C@@H]1[C@H]2OC(=O)c3cc(O)c(O)c(O)c3Oc3cc4c(c(O)c3O)-c3c(cc(O)c(O)c3O)C(=O)OC[C@H]3O[C@@H](O)[C@H](OC(=O)c5cc(O)c(O)c(O)c5Oc5cc6c(c(O)c5O)-c5c(cc(O)c(O)c5O)C(=O)O[C@@H]1[C@@H](COC6=O)O[C@H]2O)[C@@H](OC(=O)c1cc(O)c(O)c(O)c1)[C@@H]3OC4=O)c1cc(O)c(O)c(O)c1` [oenothein B], the “endothelin-1 synthesis, percentage of basal values” in experiment [1] (6 h incubation, OTb 1 μg/ml, Ap-OPC 1 μg/ml, FIG. 2(A)) is listed as “inhibited endothelin-1 synthesis”; in experiment [1] (24 h incubation, OTb 1 μg/ml, Ap-OPC 1 μg/ml, FIG. 2(B)), “much reduced”. Also, the endothelin-1 total synthesis entry in experiment [1] (24 h, OTb 1 μg/ml, Ap-OPC 1 μg/ml, Example 19, FIG. 4(D)) is on record as “largely unaffected”. Besides, in experiment [1] (bovine aortic endothelial cells, FIG. 1(A), 1(B)), the “inhibition of endothelin-1 synthesis” value is reported as “concentration dependent”. For the same compound, in experiment [2], the “binding of biotinylated-OPC relative to biotinylated-OPC alone” value is “binding of procyanidins increases as oenothein B concentration increases”. In experiment [3], the “KLF2 mRNA levels, ratio to control” value was “relatively insignificant”. For the same compound, the “eNOS mRNA levels, ratio to control” value in experiment [4] is “little effect”. Moreover, in experiment [5], the “endothelin-1 (ET-1) mRNA levels, ratio to control” value is listed as “largely unaffected”.
